Patent US20060002934A1 (priority 2002, published 2006)
“Also recorded” adds a separate entry of the source.

How the values were obtained:
Type in all cases: cell-based, human
[1] = tested on: MDA-MB-435S cells expressing del 8 E-cadherin; assay: Cell motility by time-lapse laser scanning microscopy, del 8 E-cadherin transfectants; details: del 8 E-cadherin cells on collagen I, Tyrphostin AG 1478 6.3 μM; for cell motility enhanced by mutant E-cadherin (effect of inhibitor): 7 h, PD 98059 50 μM, LY 294002 40 μM
Method: For time-lapse laser scanning microscopy, cells were cultivated in a microscope-coupled incubation chamber (Zeiss, Jena, Germany) at 37° C. under 5% CO2. Cells were seeded at a density of 2×10^5 cells per 3.5-cm in plates with a glass bottom which were purchased either uncoated or coated with poly-lysine from MatTek Corporation (Ashland, Mass., USA). Uncoated plates were coated for 4 h at 37° C. with collagen I (100 μg/ml, Sigma, Deisenhofen, Germany) or overnight at 4° C. with fibronectin (10 μg/ml, Sigma) or vitronectin (10 μg/ml, Becton Dickinson, Bedford, USA). Kinase inhibitors were used at final concentrations of 50 μM (PD 98059, Sigma, Deisenhofen, Germany), 40 μM (LY 294002, Calbiochem, Schwalbach, Germany), or 6.3 μM (Tyrphostin AG 1478, Sigma). […] Phase contrast images were taken at 3 min intervals with an Axiovert laser scanning microscope LSM 510 (Zeiss) with lens PNF 20×/0.4 PH2 and a helium-neon laser at 543 nm in transmission scanning mode. The percentage of motile cells was measured by drawing the outlines of cells on the screen and counting the cells which moved completely out of the initial area within the recording time of 7 h. Semiautomatic tracing of cell nuclei using the laser scanning microscope software from Zeiss allowed determination of the individual cell speed. The calculation of the cell speed is based on the division of the displacement of an individual cell divided by the total time of recording. Cells were brought in suspension by disruption of cell-cell and cell-matrix interactions and seeded on glass plates precoated with collagen type 1. Cell motility was analyzed by long-term recordings of a duration of 7 h starting 2 h after plating using a laser scanning microscope coupled with a temperature- and CO2-controlled incubation chamber. Motile cells were defined as cells which were able to move out of their initial space within 7 h according to a method described by Marks (J. Cell Bioll. 112 (1991), 149-158). The percentage of motile cells was similar in non-transfected (30%) or wt E-cadherin expressing MDA-MB-435S cells (26%) but elevated upon expression of mutant E-cadherin: […] (52%), […] (58%) and p8 (45%, FIG. 1B). It has been shown for a number of cell lines that the motile behavior of individual cells is variable and therefore it is advisable to investigate a large number of cells to obtain a reliable determination of cellular velocity (Hartmann-Petersen, Cytometry 40 (2000), 260-270). In order to determine the motility of individual cells, the center of the nucleus was semiautomatically traced and the speed of 60 cells per cell line derived from at least three independent experiments was calculated. The range between the minimal and the maximal cell speed and the median of cell speeds were used as motility parameters. […]

p44/42 MAP kinase = assay: Western blot with phosphorylation-specific antibodies, MAP kinase; details: data not shown
Method: (§1) For immunoblot analysis, cells were seeded at a density of 6×10^5 cells per 10 cm tissue culture dish and lysed 5 h later with 500 μL-CAM buffer (140 mM NaCl, 4.7 mM KCl, 0.7 mM MgSO4, 1.2 mM CaCl2, 10 mM Hepes pH 7.4, containing 1% (v/v) Triton-X-100 and 1 mM phenylmethylsulfonylfluoride (PMSF) (Cunningham, Proc. Acad. Sci. USA 81 (1984), 5787-5791). Proteins were separated by 7% SDS-polyacrylamide gel electrophoresis followed by transfer to nitrocellulose (Schleicher & Schuell, Dassel, Germany) or PVDF (Bio-Rad Laboratories, München, Germany) membranes. Polyclonal antibodies against total or activated kinases were purchased from New England Biolabs (Frankfurt, Germany): Akt antibody (#9272), detecting total Akt kinase levels, phospho-Akt antibody (Ser473, #9270), detecting phosphorylated Ser 473 in Akt1, Akt2 and Akt3, MAP kinase antibody (# 9102), detecting total MAP kinase, phospho-p44/42 MAP kinase (#9101) detecting activated MAP kinase phosphorylated at Thr 202/[…]. Monoclonal antibody against p53 was purchased from Oncogene Research Products (Ab-6, #OP43). Polyclonal antibodies against total or activated p38 MAP kinases were purchased from New England Biolabs. Phospho-p38 MAP kinase polyclonal antibody (#9211) detects phosphorylated threonine 180 and tyrosine 182 p38 MAP kinase (#9212). […]

Akt/PKB = assay: Western blot with phosphorylation-specific antibodies, Akt/PKB; details: data not shown
Method: as §1

[2] = tested on: wt-EcadEGFP expressing MDA-MB-435S cells; assay: Time-lapse imaging of motility and E-cadherin localization, wt-EcadEGFP transfectants; details: Tyrphostin AG1478 6,3 μM
Method: (§2) For time-lapse laser scanning microscopy, cells were cultivated overnight in a microscope-coupled incubation chamber (Zeiss, Jena, Germany) at 37 °C under 5% CO2. Cells were seeded at a density of 1×10^5 cells per 3.5-cm in collagen I-coated plates with a glass bottom which were purchased from MatTek Corporation (Ashland, Mass., USA). Uncoated plates were coated for 4 h at 37° C. with collagen I (100 μg/ml). EGFR kinase inhibitor Tyrphostin AG 1478 (Sigma, Deisenhofen, Germany) was used at a final concentration of 6.3 μM. […] Phase contrast images were taken at 2-3 min intervals with an Axiovert laser scanning microscope LSM 510 (Zeiss) with lens PNF 63× (oil) and an argon laser at 488 nm with a transmission filter of 515 nm.
(§3) To investigate the temporal localization of mutant E-cadherin during cell migration, EcadEGFP transfected cells were cultivated in an incubation chamber coupled with a Zeiss Axiovert 100 microscope. Cells transfected with the vector pEGFP-N2 Vektor or the different EcadEGFP constructs (wt-EcadEGFP and p8-EcadEGFP), were seeded on collagen I coated dishes with glas bottom.

[3] = tested on: p8-EcadEGFP expressing MDA-MB-435S cells; assay: Time-lapse imaging of motility and E-cadherin localization, p8-EcadEGFP transfectants; details: Tyrphostin AG1478 6,3 μM
Method: as §2, §3

[4] = tested on: parental, wt and mutant E-cadherin expressing MDA-MB-435S cells; assay: Sensitivity profiling by XTT-cell proliferation and viability assay; details: 48 h treatment, increasing concentrations; parental vs wt vs mutant E-cadherin cells
Method: Cells were seeded at a density of […] cells per well in 96-well microtiter plates (Nunc, Wiesbaden-Biebrich, Germany) in 100 μl DMEM with 10% FCS per-well, and cell proliferation was investigated by XTT-cell proliferation and viability assay (Roche Molecular Biochemicals, Mannheim, Germany). After 24, 48 and 72 h, 50 μl XTT labeling mixture was added. The cleavage of the tetrazolium salt XTT to form a formazan dye that occurs in metabolically active viable cells was quantified spectrophotometrically by measuring the absorbance of the formazan product at 450 nm by an ELISA plate reader. The absorbance values obtained when culture medium without cells was assayed was subtracted from the values obtained with cells. Quadruplicate determinations were performed for each time point. The sensitivity of parental, wt and mutant E-cadherin expressing MDA-MB-435S cells to the chemotherapeutic agents cisplatin, etoposide and 5-FU was investigated by XTT-cell proliferation and viability assay as described above. […] After 48 h, 50 μXTT labeling mixture was added and the absorbance values at 450 nm were measured spectrophotometrically by an ELISA plate reader. The absorbance values obtained when culture medium without cells was assayed, were subtracted from the values obtained with cells. […] The percentage of viable cells was determined corresponding to non-treated cells.

[5] = tested on: parental, wt and mutant E-cadherin expressing MDA-MB-435S cells; assay: Colony formation assay; details: 2 h treatment, colonies counted after 7 days; parental vs wt vs mutant E-cadherin cells
Method: Chemosensitivity to cisplatin, etoposide and 5-FU of parental, wt and mutant E-cadherin expressing MDA-MB-435S cells was investigated by colony formation assay. Cells were seeded at a density of 2×10^3 cells per 6-well and treated 3 h later for 2 h with cisplatin, etoposide or 5-FU. Colonies were fixed and stained after 7 days with Diff Quick Reagent (Dade Behring, Liederbach, Germany) and the colony number was determined with Scion Image Software from Scion Corporation (Frederick, USA). The percentage of colonies was determined corresponding to non-treated cells.

[6] = wt-EcadEGFP cells, collagen I, 10 cells, 4 h
[7] = p8-EcadEGFP cells, collagen I, 10 cells, 4 h

COc1cc2ncnc(Nc3cccc(Cl)c3)c2cc1OC [Tyrphostin AG 1478]
cell motility enhanced by mutant E-cadherin (effect of inhibitor) [1]: sensitive | median and range of cell speeds ([1]; traced 7 h): decreased to the level of wt E-cadherin expressing cells | percentage of motile cells ([1]; traced 7 h): decreased to the level of wt E-cadherin expressing cells | EGF-induced activation of MAP kinase (phosphorylation) (p44/42 MAP kinase): completely blocked | EGF-induced activation of Akt/PKB (Akt/PKB): completely blocked | localization of wt-EcadEGFP [2]: not significantly changed; also recorded: no influence | cell motility (range of cell speeds) [2, 6]: 1,3-8,8 μm/h | cell paths (range) [2, 6]: 15,1-35,2 μm | localization of p8-EcadEGFP [3]: also localized perinuclear and at cell cell adhesion sites; also recorded: localized at cell cell contacts and perinuclear | cell motility (range of cell speeds) [3, 7]: 5,7-20 μm/h | cell paths (range) [3, 7]: 22,8-80,3 μm

COc1cccc(-c2cc(=O)c3ccccc3o2)c1N [PD 98059]
cell motility enhanced by mutant E-cadherin (effect of inhibitor) [1]: less effective; also recorded: no inhibitory effect | EGF-induced activation of MAP kinase (phosphorylation) (p44/42 MAP kinase): effectively blocked

N.N.[Cl][Pt][Cl] [cisplatin]
sensitivity profile, cell survival by XTT assay [4]: reduced sensitivity of wt or mutant E-cadherin expressing MDA-MB-435S cells as compared to parental cells | sensitivity profile, colony formation [5]: reduced sensitivity of wt or mutant E-cadherin expressing MDA-MB-435S cells as compared to parental cells
